{"source": "ChEMBL document CHEMBL5370540", "about": "“Discovery of pyrimidine-5-carboxamide derivatives as novel salt-inducible kinases (SIKs) inhibitors for inflammatory bowel disease (IBD) treatment” (Eur J Med Chem, 2023)", "key": {"BMDM [1]": {"system": "BMDM", "assay": "Anti-inflammatory activity against C57BL/6J mouse BMDM cells assessed as increase in IL-10 level at 500 nM preincubated for 1 hr followed by LPS stimulation measured after 2 to 8 hrs by ELISA method", "format": "functional, cell-based", "conditions": "time 3-9 hrs"}, "Mus musculus [2]": {"system": "Mus musculus", "assay": "Antiinflammatory activity in DSS-induced colitis C57BL/6J mouse model assessed as increase in body weight at 7.5 to 30 mg/kg, ip", "format": "functional, organism-based", "conditions": "dose 7.5-30 mg/kg"}, "[3]": {"target": "Serine/threonine-protein kinase SIK2 (Mus musculus) (UniProt Q8CFH6)", "sequence (Q8CFH6 whole entry)": "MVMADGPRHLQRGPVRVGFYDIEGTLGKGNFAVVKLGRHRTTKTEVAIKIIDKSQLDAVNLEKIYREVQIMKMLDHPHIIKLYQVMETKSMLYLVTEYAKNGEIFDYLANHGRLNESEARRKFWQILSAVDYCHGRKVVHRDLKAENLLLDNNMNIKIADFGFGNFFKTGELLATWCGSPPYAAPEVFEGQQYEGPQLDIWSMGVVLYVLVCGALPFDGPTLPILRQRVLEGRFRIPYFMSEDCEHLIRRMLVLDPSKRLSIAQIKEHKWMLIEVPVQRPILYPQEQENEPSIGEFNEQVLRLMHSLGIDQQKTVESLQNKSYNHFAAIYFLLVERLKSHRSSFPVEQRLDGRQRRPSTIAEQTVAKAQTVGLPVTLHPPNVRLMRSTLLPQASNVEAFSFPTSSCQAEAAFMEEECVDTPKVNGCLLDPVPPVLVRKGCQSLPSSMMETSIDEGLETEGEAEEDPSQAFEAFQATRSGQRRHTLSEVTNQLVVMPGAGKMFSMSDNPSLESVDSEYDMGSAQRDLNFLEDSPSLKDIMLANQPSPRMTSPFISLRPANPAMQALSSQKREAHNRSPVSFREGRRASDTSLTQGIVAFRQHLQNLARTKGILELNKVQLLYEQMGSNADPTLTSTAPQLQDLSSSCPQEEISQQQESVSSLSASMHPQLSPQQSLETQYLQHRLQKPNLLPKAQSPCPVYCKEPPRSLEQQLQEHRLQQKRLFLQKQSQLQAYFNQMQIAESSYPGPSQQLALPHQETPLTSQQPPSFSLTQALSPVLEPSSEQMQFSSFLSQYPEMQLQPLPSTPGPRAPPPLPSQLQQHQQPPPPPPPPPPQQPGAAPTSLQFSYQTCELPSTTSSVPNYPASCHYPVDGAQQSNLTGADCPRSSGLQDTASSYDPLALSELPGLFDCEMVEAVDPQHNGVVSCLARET", "assay": "Inhibition of SIK2 in C57BL/6J mouse BMDM cells assessed as increase in Nurr77 mRNA level at 500 nM preincubated for 1 hr followed by LPS stimulation measured for 1 hr by qPCR analysis", "format": "cell-based", "conditions": "time 2.0 hrs"}, "[4]": {"assay": "AUC (0 to t) in Sprague-Dawley rat at 5 mg/kg, iv measured upto 24 hrs by LC/MS/MS analysis", "format": "ADME, organism-based", "design": "time < 24 hrs, dose 5 mg/kg, route iv", "conditions": "in vivo"}, "[5]": {"assay": "Clearance in Sprague-Dawley rat at 10 mg/kg, po measured upto 24 hrs by LC/MS/MS analysis", "format": "ADME, organism-based", "conditions": "in vivo"}, "Mus musculus [6]": {"system": "Mus musculus", "assay": "Antiinflammatory activity in DSS-induced colitis C57BL/6J mouse model assessed as increase in body weight at 50 to 100 mg/kg, po", "format": "functional, organism-based", "conditions": "dose 50-100 mg/kg"}, "[7]": {"target": "Proto-oncogene tyrosine-protein kinase Src (Homo sapiens) (UniProt P12931)", "sequence (P12931 2-536 limits assumed)": "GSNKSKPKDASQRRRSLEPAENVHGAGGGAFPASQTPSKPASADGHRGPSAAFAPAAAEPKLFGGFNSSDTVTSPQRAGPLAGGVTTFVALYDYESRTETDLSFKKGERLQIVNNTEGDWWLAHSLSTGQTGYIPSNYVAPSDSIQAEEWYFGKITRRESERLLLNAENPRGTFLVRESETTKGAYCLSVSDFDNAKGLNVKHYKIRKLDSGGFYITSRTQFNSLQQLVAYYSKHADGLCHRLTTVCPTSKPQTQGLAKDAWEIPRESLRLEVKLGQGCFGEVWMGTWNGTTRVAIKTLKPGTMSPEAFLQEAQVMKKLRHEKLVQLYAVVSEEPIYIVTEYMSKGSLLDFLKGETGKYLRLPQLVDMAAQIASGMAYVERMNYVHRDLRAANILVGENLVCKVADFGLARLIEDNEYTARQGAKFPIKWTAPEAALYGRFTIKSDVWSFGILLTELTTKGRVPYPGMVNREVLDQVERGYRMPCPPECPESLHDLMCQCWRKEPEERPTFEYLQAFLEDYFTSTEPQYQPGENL", "assay": "Inhibition of cSRC (unknown origin) at 1 uM"}, "[8]": {"target": "Serine/threonine-protein kinase SIK2 (Mus musculus) (UniProt Q8CFH6)", "assay": "Inhibition of SIK2 in C57BL/6J mouse BMDM cells assessed as increase in c-FOS mRNA level at 500 nM preincubated for 1 hr followed by LPS stimulation measured for 1 hr by qPCR analysis", "format": "cell-based", "conditions": "time 2.0 hrs"}, "[9]": {"target": "Serine/threonine-protein kinase SIK2 (Mus musculus) (UniProt Q8CFH6)", "assay": "Inhibition of SIK2 in C57BL/6J mouse BMDM cells assessed as increase in IL-12 mRNA level at 500 nM preincubated for 1 hr followed by LPS stimulation measured for 1 hr by qPCR analysis", "format": "cell-based", "conditions": "time 2.0 hrs"}, "[10]": {"target": "Tyrosine-protein kinase ABL1 (Homo sapiens) (UniProt P00519)", "assay": "Inhibition of Abl (unknown origin) at 1 uM"}, "Mus musculus [11]": {"system": "Mus musculus", "assay": "Antiinflammatory activity in DSS-induced colitis C57BL/6J mouse model assessed as decrease in thickening of inherent base layer at 7.5 to 15 mg/kg, ip measured after 12 days by H&E staining based analysis", "format": "functional, organism-based", "conditions": "dose 7.5-15 mg/kg, time 12.0 day"}, "[12]": {"target": "Tyrosine-protein kinase TXK (Homo sapiens) (UniProt P42681)", "sequence (P42681 whole entry)": "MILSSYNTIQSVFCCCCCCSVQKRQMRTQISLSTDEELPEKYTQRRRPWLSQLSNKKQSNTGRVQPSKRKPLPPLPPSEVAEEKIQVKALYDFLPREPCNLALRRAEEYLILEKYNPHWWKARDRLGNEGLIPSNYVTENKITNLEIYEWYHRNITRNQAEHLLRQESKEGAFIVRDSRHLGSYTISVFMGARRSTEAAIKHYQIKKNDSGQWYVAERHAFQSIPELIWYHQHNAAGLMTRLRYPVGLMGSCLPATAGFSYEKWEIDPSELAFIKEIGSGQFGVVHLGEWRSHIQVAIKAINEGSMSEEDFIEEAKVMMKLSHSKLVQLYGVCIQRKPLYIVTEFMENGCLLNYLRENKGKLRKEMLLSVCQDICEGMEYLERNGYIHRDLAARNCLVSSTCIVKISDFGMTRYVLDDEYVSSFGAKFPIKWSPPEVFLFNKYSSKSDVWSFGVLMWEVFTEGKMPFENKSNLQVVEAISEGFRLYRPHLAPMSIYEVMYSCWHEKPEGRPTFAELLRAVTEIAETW", "assay": "Inhibition of Txk (unknown origin) at 1 uM"}, "[13]": {"target": "Serine/threonine-protein kinase SIK2 (Mus musculus) (UniProt Q8CFH6)", "assay": "Inhibition of SIK2 in C57BL/6J mouse BMDM cells assessed as increase in c-FOS mRNA level at 500 nM preincubated for 1 hr followed by LPS stimulation measured for 2 to 4 hrs by qPCR analysis", "format": "cell-based", "conditions": "time 3-5 hrs"}, "[14]": {"target": "Tyrosine-protein kinase Blk (Homo sapiens) (UniProt P51451)", "sequence (P51451 2-505 limits assumed)": "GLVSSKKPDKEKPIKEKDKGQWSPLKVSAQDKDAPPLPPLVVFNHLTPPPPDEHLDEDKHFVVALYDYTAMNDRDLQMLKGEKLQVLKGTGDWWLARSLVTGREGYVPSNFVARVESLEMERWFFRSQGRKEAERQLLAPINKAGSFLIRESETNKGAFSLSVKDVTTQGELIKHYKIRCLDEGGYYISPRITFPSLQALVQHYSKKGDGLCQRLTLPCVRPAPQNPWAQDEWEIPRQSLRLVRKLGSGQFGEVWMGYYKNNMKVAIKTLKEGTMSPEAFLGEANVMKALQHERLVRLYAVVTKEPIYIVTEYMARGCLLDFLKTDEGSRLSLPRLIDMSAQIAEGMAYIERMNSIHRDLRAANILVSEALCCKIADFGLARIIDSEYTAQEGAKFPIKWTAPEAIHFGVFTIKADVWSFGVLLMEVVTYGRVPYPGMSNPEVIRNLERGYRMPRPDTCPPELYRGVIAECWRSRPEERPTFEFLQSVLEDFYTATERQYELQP", "assay": "Inhibition of BlK (unknown origin) at 1 uM"}, "[15]": {"target": "Serine/threonine-protein kinase SIK2 (Mus musculus) (UniProt Q8CFH6)", "assay": "Inhibition of SIK2 in C57BL/6J mouse BMDM cells assessed as increase in arginase 1 mRNA level at 500 nM preincubated for 1 hr followed by LPS stimulation measured upto 8 hrs by qPCR analysis", "format": "cell-based", "conditions": "time <= 9.0 hrs"}, "[16]": {"target": "Serine/threonine-protein kinase SIK2 (Homo sapiens, UniProt Q9H0K1)", "assay": "Inhibition of SIK2 (unknown origin)"}, "Mus musculus [17]": {"system": "Mus musculus", "assay": "Antiinflammatory activity in DSS-induced colitis C57BL/6J mouse model assessed as increase in colon length at 7.5 to 30 mg/kg, ip measured after 12 days", "format": "functional, organism-based", "conditions": "dose 7.5-30 mg/kg, time 12.0 day"}, "[18]": {"target": "Serine/threonine-protein kinase SIK2 (Mus musculus) (UniProt Q8CFH6)", "assay": "Inhibition of SIK2 in C57BL/6J mouse BMDM cells assessed as increase in IL-10 mRNA level at 500 nM preincubated for 1 hr followed by LPS stimulation measured for 1 hr by qPCR analysis", "format": "cell-based", "conditions": "time 2.0 hrs"}, "[19]": {"target": "Serine/threonine-protein kinase SIK2 (Mus musculus) (UniProt Q8CFH6)", "assay": "Inhibition of SIK2 in C57BL/6J mouse BMDM cells assessed as increase in IL-10 mRNA level at 500 nM preincubated for 1 hr followed by LPS stimulation measured for 2 to 4 hrs by qPCR analysis", "format": "cell-based", "conditions": "time 3-5 hrs"}, "Mus musculus [20]": {"system": "Mus musculus", "assay": "Antiinflammatory activity in DSS-induced colitis C57BL/6J mouse model assessed as decrease in disease activity index at 7.5 to 30 mg/kg, ip", "format": "functional, organism-based", "conditions": "dose 7.5-30 mg/kg"}, "[21]": {"assay": "Half life in Sprague-Dawley rat at 5 mg/kg, iv measured upto 24 hrs by LC/MS/MS analysis", "format": "ADME, organism-based", "conditions": "in vivo"}, "[22]": {"target": "Tyrosine-protein kinase HCK (Homo sapiens) (UniProt P08631)", "sequence (P08631 2-526 limits assumed)": "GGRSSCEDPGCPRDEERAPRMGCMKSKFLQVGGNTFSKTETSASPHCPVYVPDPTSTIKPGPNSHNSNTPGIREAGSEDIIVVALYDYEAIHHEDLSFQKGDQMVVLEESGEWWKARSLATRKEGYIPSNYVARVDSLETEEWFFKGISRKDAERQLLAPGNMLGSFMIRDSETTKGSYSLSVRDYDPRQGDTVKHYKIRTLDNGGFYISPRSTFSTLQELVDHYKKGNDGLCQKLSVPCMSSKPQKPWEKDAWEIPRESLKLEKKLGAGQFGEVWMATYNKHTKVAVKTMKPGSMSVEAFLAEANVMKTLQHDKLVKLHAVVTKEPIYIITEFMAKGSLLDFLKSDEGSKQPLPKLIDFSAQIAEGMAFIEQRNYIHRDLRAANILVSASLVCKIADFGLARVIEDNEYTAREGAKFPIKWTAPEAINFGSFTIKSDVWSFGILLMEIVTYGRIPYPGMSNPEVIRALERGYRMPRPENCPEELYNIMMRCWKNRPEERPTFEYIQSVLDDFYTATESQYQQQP", "assay": "Inhibition of HcK (unknown origin) at 1 uM"}, "[23]": {"target": "Tyrosine-protein kinase Fyn (Homo sapiens) (UniProt P06241)", "assay": "Inhibition of Fyn (unknown origin) at 1 uM"}, "[24]": {"target": "Serine/threonine-protein kinase SIK2 (Mus musculus) (UniProt Q8CFH6)", "assay": "Inhibition of SIK2 in C57BL/6J mouse BMDM cells assessed as increase in IL-12 mRNA level at 500 nM preincubated for 1 hr followed by LPS stimulation measured after 8 hrs by qPCR analysis", "format": "cell-based", "conditions": "time 9.0 hrs"}, "[25]": {"assay": "Selectivity ratio of IC50 for SIK3 (unknown origin) to IC50 for SIK2 (unknown origin)"}, "[26]": {"target": "Tyrosine-protein kinase BTK (Homo sapiens) (UniProt Q06187)", "assay": "Inhibition of BTK (unknown origin) at 1 uM"}, "[27]": {"target": "Tyrosine-protein kinase Fgr (Homo sapiens) (UniProt P09769)", "sequence (P09769 2-529 limits assumed)": "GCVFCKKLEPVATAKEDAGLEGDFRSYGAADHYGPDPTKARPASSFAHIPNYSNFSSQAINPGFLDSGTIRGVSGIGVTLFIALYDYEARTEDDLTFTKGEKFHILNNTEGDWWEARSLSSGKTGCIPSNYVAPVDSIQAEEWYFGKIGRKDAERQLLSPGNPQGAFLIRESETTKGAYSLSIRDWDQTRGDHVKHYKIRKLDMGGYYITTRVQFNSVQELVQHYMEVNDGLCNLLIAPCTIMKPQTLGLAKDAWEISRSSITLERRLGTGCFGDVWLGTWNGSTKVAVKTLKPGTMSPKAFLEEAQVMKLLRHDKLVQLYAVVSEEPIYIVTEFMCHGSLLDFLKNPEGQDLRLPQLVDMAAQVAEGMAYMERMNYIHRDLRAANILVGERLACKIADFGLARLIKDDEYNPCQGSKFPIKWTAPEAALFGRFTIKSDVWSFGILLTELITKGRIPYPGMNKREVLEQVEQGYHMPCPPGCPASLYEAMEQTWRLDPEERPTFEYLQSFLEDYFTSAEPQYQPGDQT", "assay": "Inhibition of Fgr (unknown origin) at 1 uM"}, "[28]": {"assay": "Cmax in Sprague-Dawley rat at 10 mg/kg, po measured upto 24 hrs by LC/MS/MS analysis", "format": "ADME, organism-based", "design": "dose 10 mg/kg, time < 24 hrs, route po", "conditions": "in vivo"}, "[29]": {"assay": "Selectivity ratio of IC50 for SIK1 (unknown origin) to IC50 for SIK2 (unknown origin)"}, "BMDM [30]": {"system": "BMDM", "assay": "Cytotoxicity against C57BL/6J mouse BMDM cells assessed as cell viability upto 500 nM preincubated for 1 hr followed by LPS stimulation measured after 2 to 4 hrs by CCK8 assay", "format": "toxicity, cell-based", "conditions": "0.5 µM, time 3-5 hrs"}, "[31]": {"target": "Serine/threonine-protein kinase SIK1 (Homo sapiens, UniProt P57059)", "assay": "Inhibition of SIK1 (unknown origin)"}, "Mus musculus [32]": {"system": "Mus musculus", "assay": "Antiinflammatory activity in DSS-induced colitis C57BL/6J mouse model assessed as decrease in disease activity index at 50 to 100 mg/kg, po", "format": "functional, organism-based", "conditions": "dose 50-100 mg/kg"}, "Mus musculus [33]": {"system": "Mus musculus", "assay": "Antiinflammatory activity in DSS-induced colitis C57BL/6J mouse model assessed as increase in colon length at 50 to 100 mg/kg, po measured after 12 days", "format": "functional, organism-based", "conditions": "dose 50-100 mg/kg, time 12.0 day"}, "[34]": {"target": "Serine/threonine-protein kinase SIK3 (Homo sapiens, UniProt Q9Y2K2)", "sequence (Q9Y2K2 whole entry)": "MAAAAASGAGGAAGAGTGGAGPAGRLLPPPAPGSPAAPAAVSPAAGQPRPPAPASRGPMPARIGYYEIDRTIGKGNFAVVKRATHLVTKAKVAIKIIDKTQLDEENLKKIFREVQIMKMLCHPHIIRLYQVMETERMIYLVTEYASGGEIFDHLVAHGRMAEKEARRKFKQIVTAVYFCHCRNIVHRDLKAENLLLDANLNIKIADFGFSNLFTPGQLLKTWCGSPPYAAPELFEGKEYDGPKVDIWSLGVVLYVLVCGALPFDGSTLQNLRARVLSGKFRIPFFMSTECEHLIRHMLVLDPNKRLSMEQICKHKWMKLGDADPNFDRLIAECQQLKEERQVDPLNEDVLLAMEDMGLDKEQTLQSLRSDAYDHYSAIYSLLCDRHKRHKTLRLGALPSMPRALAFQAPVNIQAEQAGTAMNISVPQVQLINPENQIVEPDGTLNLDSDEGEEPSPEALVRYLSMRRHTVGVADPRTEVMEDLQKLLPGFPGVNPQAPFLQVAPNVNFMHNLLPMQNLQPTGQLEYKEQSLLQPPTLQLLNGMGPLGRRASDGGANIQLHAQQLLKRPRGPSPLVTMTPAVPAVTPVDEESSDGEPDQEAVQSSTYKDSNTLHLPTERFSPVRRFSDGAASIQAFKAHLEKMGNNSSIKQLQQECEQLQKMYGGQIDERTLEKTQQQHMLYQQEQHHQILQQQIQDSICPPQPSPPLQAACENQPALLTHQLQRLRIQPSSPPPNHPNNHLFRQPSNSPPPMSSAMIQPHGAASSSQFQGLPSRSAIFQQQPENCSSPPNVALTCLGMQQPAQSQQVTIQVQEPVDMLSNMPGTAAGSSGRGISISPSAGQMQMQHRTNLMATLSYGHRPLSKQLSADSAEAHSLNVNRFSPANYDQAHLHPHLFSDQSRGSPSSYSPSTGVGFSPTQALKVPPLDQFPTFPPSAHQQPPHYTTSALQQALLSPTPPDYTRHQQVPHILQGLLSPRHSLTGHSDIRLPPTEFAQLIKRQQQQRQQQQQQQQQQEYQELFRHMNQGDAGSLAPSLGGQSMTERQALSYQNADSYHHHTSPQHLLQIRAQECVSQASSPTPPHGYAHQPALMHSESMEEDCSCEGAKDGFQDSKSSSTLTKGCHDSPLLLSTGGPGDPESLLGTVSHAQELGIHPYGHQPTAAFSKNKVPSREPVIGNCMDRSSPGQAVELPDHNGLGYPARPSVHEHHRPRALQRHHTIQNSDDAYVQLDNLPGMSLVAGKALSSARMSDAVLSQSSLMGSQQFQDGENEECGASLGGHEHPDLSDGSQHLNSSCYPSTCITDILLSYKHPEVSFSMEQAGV", "assay": "Inhibition of SIK3 (unknown origin)"}, "[35]": {"target": "Serine/threonine-protein kinase SIK2 (Mus musculus) (UniProt Q8CFH6)", "assay": "Inhibition of SIK2 in C57BL/6J mouse BMDM cells assessed as increase in LIGHT mRNA level at 500 nM preincubated for 1 hr followed by LPS stimulation measured upto 8 hrs by qPCR analysis", "format": "cell-based", "conditions": "time <= 9.0 hrs"}}, "note": "Activity calls are given as the source filed them. No cut-off for these calls is given here."}
{"smiles": "Cc1cccc(F)c1NC(=O)c1cnc(Nc2ccc(N3CCN(C)CC3)c(F)c2)nc1NC1CCC1", "values": [{"measurement": "Activity", "setting": "BMDM [1]", "result": "Active"}, {"measurement": "Activity", "setting": "Mus musculus [2]", "result": "Active"}, {"measurement": "inhibition", "setting": "[3]", "result": "Active"}, {"measurement": "AUC(0-t) at 24 h", "setting": "[4]", "result": 20300, "unit": "ng·h/mL"}, {"measurement": "CL/F", "setting": "[5]", "result": 11.7, "unit": "mL/min/kg"}, {"measurement": "Activity", "setting": "Mus musculus [6]", "result": "Active"}, {"measurement": "inhibition", "setting": "[7]", "result": "Active"}, {"measurement": "inhibition", "setting": "[8]", "result": "Active"}, {"measurement": "inhibition", "setting": "[9]", "result": "Active"}, {"measurement": "inhibition", "setting": "[10]", "result": "Active"}, {"measurement": "Activity", "setting": "Mus musculus [11]", "result": "Active"}, {"measurement": "inhibition", "setting": "[12]", "result": "Active"}, {"measurement": "inhibition", "setting": "[13]", "result": "inactive"}, {"measurement": "inhibition", "setting": "[14]", "result": "Active"}, {"measurement": "inhibition", "setting": "[15]", "result": "Active"}, {"measurement": "IC50", "setting": "[16]", "result": 8, "unit": "nM"}, {"measurement": "Activity", "setting": "Mus musculus [17]", "result": "Active"}, {"measurement": "inhibition", "setting": "[18]", "result": "Active"}, {"measurement": "inhibition", "setting": "[19]", "result": "inactive"}, {"measurement": "Activity", "setting": "Mus musculus [20]", "result": "Active"}, {"measurement": "half-life", "setting": "[21]", "result": 11.5, "unit": "h"}, {"measurement": "inhibition", "setting": "[22]", "result": "Active"}, {"measurement": "inhibition", "setting": "[23]", "result": "Active"}, {"measurement": "inhibition", "setting": "[24]", "result": "inactive"}, {"measurement": "Ratio IC50", "setting": "[25]", "result": 18.3}, {"measurement": "inhibition", "setting": "[26]", "result": "Active"}, {"measurement": "inhibition", "setting": "[27]", "result": "Active"}, {"measurement": "Cmax", "setting": "[28]", "result": 572, "unit": "ng/mL"}, {"measurement": "Ratio IC50", "setting": "[29]", "result": 3}, {"measurement": "Activity", "setting": "BMDM [30]", "result": "Non-Toxic"}, {"measurement": "IC50", "setting": "[31]", "result": 24, "unit": "nM"}, {"measurement": "Activity", "setting": "Mus musculus [32]", "result": "Active"}, {"measurement": "Activity", "setting": "Mus musculus [33]", "result": "Active"}, {"measurement": "IC50", "setting": "[34]", "result": 146, "unit": "nM"}, {"measurement": "inhibition", "setting": "[35]", "result": "Active"}]}
